In patent publication US9873709B2 (priority 2013, dated 2018) one finds IC50 data, which are given here for 25 molecules.

The structures appear in SMILES notation.

Broadly, the IC50 is the concentration that inhibits the measured activity by half.

This assay relates to JAK1-dependent STAT6 phosphorylation downstream of IL-13 stimulation in TF-1 human erythroleukemia cells. In words: cells. To be noted: TF-1, read-out: IL-13-pSTAT6 IC50.
In the case of `CCOC(=O)N1CC=C(c2cccn3nc(Nc4ccc(C(=O)N5CC6(CCNC6)C5)cc4)nc23)CC1` [Example 2-372, ethyl 4-[2-[4-(2,7-diazaspiro[3.4]octane-2-carbonyl)anilino]-[1,2,4]triazolo[1,5-a]pyridin-8-yl]-3,6-dihydro-2H-pyridine-1-carboxylate], the concentration for half-maximal inhibition (IC50) turned out to be 296 nM.

For the molecule `CCOC(=O)N1CC=C(c2cccn3nc(Nc4ccc(C(=O)N(C)CCN)cc4)nc23)CC1` [Example 2-374, ethyl 4-[2-[4-[2-aminoethyl(methyl)carbamoyl]anilino]-[1,2,4]triazolo[1,5-a]pyridin-8-yl]-3,6-dihydro-2H-pyridine-1-carboxylate], the 50% inhibitory concentration (IC50) came out at 62.5 nM.

For the molecule `O=C(CCC(F)(F)F)N1CC=C(c2cccn3nc(Nc4ccc(C(=O)N5CCC6(CCCN6)C5)cc4)nc23)CC1` (stereo not shown) [Example 2-377, 1-[4-[2-[4-(1,7-diazaspiro[4.4]nonane-7-carbonyl)anilino]-[1,2,4]triazolo[1,5-a]pyridin-8-yl]-3,6-dihydro-2H-pyridin-1-yl]-4,4,4-trifluoro-butan-1-one], the half-inhibitory concentration (IC50) was determined as 55.5 nM.

As to `O=C(CCC(F)(F)F)N1CC=C(c2cccn3nc(Nc4ccc(C(=O)N5CCC6(CCCCN6)C5)cc4)nc23)CC1` (stereo not shown) [Example 2-378, 1-[4-[2-[4-(2,6-diazaspiro[4.5]decane-2-carbonyl)anilino]-[1,2,4]triazolo[1,5-a]pyridin-8-yl]-3,6-dihydro-2H-pyridin-1-yl]-4,4,4-trifluoro-butan-1-one], the half-inhibitory concentration (IC50) amounted to 238 nM.

Regarding `O=C(CCC(F)(F)F)N1CC=C(c2cccn3nc(Nc4ccc(C(=O)N5CCC6(CNC6)C5)cc4)nc23)CC1` [Example 2-379, 1-[4-[2-[4-(2,6-diazaspiro[3,4]octane-6-carbonyl)anilino]-[1,2,4]triazolo[1,5-a]pyridin-8-yl]-3,6-dihydro-2H-pyridin-1-yl]-4,4,4-trifluoro-butan-1-one], the concentration for half-maximal inhibition (IC50) is 282 nM.

Take `O=C(CCC(F)(F)F)N1CC=C(c2cccn3nc(Nc4ccc(C(=O)N5CCC6(CC5)CNCCO6)cc4)nc23)CC1` [Example 2-380, 4,4,4-trifluoro-1-[4-[2-[4-(1-oxa-4,9-diazaspiro[5.5]undecane-9-carbonyl)anilino]-[1,2,4]triazolo[1,5-a]pyridin-8-yl]-3,6-dihydro-2H-pyridin-1-yl]butan-1-one]: the half-inhibitory concentration (IC50) is 38.4 nM.

On to `O=C(CCC(F)(F)F)N1CC=C(c2cccn3nc(Nc4ccc(C(=O)N5CCCC6(CCNCC6)C5)cc4)nc23)CC1` [Example 2-382, 1-[4-[2-[4-(2,9-diazaspiro[5.5]undecane-2-carbonyl)anilino]-[1,2,4]triazolo[1,5-a]pyridin-8-yl]-3,6-dihydro-2H-pyridin-1-yl]-4,4,4-trifluoro-butan-1-one], for which the IC50 came to 376 nM.

On to `O=C(CCC(F)(F)F)N1CC=C(c2cccn3nc(Nc4ccc(C(=O)N5CCCC6(CCCCN6)C5)cc4)nc23)CC1` (stereo not shown) [Example 2-383, 1-[4-[2-[4-(1,8-diazaspiro[5.5]undecane-8-carbonyl)anilino]-[1,2,4]triazolo[1,5-a]pyridin-8-yl]-3,6-dihydro-2H-pyridin-1-yl]-4,4,4-trifluoro-butan-1-one], for which the concentration for half-maximal inhibition (IC50) stood at 9 nM.

For `O=C(CCC(F)(F)F)N1CC=C(c2cccn3nc(Nc4ccc(C(=O)N5CCCC6(CCCN6)CC5)cc4)nc23)CC1` (stereo not shown) [Example 2-384, 1-[4-[2-[4-(1,9-diazaspiro[4.6]undecane-9-carbonyl)anilino]-[1,2,4]triazolo[1,5-a]pyridin-8-yl]-3,6-dihydro-2H-pyridin-1-yl]-4,4,4-trifluoro-butan-1-one], the IC50 is 93 nM.

Regarding `O=C(NCC1CCCCN1)c1ccc(Nc2nc3c(C4=CCN(C(=O)CCC(F)(F)F)CC4)cccn3n2)cc1` (stereo not shown) [Example 2-385, N-(2-piperidylmethyl)-4-[[8-[1-(4,4,4-trifluorobutanoyl)-3,6-dihydro-2H-pyridin-4-yl]-[1,2,4]triazolo[1,5-a]pyridin-2-yl]amino]benzamide], the concentration for half-maximal inhibition (IC50) was 174 nM.

Take `O=C(CCC(F)(F)F)N1CC=C(c2cccn3nc(Nc4ccc(C(=O)N5CCC6CNCC65)cc4)nc23)CC1` (stereo not shown) [Example 2-386, 1-[4-[2-[4-(3,3a,4,5,6,6a-hexahydro-2H-pyrrolo[2,3-c]pyrrole-1-carbonyl)anilino]-[1,2,4]triazolo[1,5-a]pyridin-8-yl]-3,6-dihydro-2H-pyridin-1-yl]-4,4,4-trifluoro-butan-1-one]: the IC50 was 155 nM.

Take `O=C(CCC(F)(F)F)N1CC=C(c2cccn3nc(Nc4ccc(C(=O)N5C[C@@H]6CCN[C@@H]6C5)cc4)nc23)CC1` [Example 2-387, 1-[4-[2-[4-[(3aS,6aS)-2,3,3a,4,6,6a-hexahydro-1H-pyrrolo[2,3-c]pyrrole-5-carbonyl]anilino]-[1,2,4]triazolo[1,5-a]pyridin-8-yl]-3,6-dihydro-2H-pyridin-1-yl]-4,4,4-trifluoro-butan-1-one]: the IC50 is 147 nM.

As for `O=C(NCC1CC12CCNCC2)c1ccc(Nc2nc3c(C4=CCN(C(=O)CCC(F)(F)F)CC4)cccn3n2)cc1` (stereo not shown) [Example 2-388, N-(6-azaspiro[2.5]octan-2-ylmethyl)-4-[[8-[1-(4,4,4-trifluorobutanoyl)-3,6-dihydro-2H-pyridin-4-yl]-[1,2,4]triazolo[1,5-a]pyridin-2-yl]amino]benzamide], the half-inhibitory concentration (IC50) was 141 nM.

Take `CN1CCCC(CN(C)C(=O)c2ccc(Nc3nc4c(C5=CCN(C(=O)CCC(F)(F)F)CC5)cccn4n3)cc2)C1` (stereo not shown) [Example 2-389, N-methyl-N-[(1-methyl-3-piperidyl)methyl]-4-[[8-[1-(4,4,4-trifluorobutanoyl)-3,6-dihydro-2H-pyridin-4-yl]-[1,2,4]triazolo[1,5-a]pyridin-2-yl]amino]benzamide]: the IC50 was 12.6 nM.

Consider `O=C(CCC(F)(F)F)N1CC=C(c2cccn3nc(Nc4ccc(C(=O)N5CCCC(O)(CN6CCCC6)CC5)cc4)nc23)CC1` (stereo not shown) [Example 2-390, 4,4,4-trifluoro-1-[4-[2-[4-[4-hydroxy-4-(pyrrolidin-1-ylmethyl)azepane-1-carbonyl]anilino]-[1,2,4]triazolo[1,5-a]pyridin-8-yl]-3,6-dihydro-2H-pyridin-1-yl]butan-1-one], for which the IC50 worked out at 178 nM.

As for `CN1CCC2(CC1)CN(C(=O)c1ccc(Nc3nc4c(C5=CCN(C(=O)CCC(F)(F)F)CC5)cccn4n3)cc1)C2` [Example 2-391, 4,4,4-trifluoro-1-[4-[2-[4-(7-methyl-2,7-diazaspiro[3.5]nonane-2-carbonyl)anilino]-[1,2,4]triazolo[1,5-a]pyridin-8-yl]-3,6-dihydro-2H-pyridin-1-yl]butan-1-one], the half-inhibitory concentration (IC50) was 5.7 nM.

With `O=C(CCC(F)(F)F)N1CC=C(c2cccn3nc(Nc4ccc(C(=O)N5CC6(CNC6)C5)cc4)nc23)CC1` [Example 2-392, 1-[4-[2-[4-(2,6-diazaspiro[3.3]heptane-2-carbonyl)anilino]-[1,2,4]triazolo[1,5-a]pyridin-8-yl]-3,6-dihydro-2H-pyridin-1-yl]-4,4,4-trifluoro-butan-1-one], the IC50 was found to be 217 nM.

As to `CN1CCN(C2CCN(C(=O)c3ccc(Nc4nc5c(C6=CCN(C(=O)CCC(F)(F)F)CC6)cccn5n4)cc3)CC2)CC1` [Example 2-393, 4,4,4-trifluoro-1-[4-[2-[4-[4-(4-methylpiperazin-1-yl)piperidine-1-carbonyl]anilino]-[1,2,4]triazolo[1,5-a]pyridin-8-yl]-3,6-dihydro-2H-pyridin-1-yl]butan-1-one], the 50% inhibitory concentration (IC50) was determined as 23.4 nM.

With `O=C(CCC(F)(F)F)N1CC=C(c2cccn3nc(Nc4ccc(C(=O)N5CCN(Cc6cccnc6)CC5)cc4)nc23)CC1` [Example 2-394, 4,4,4-trifluoro-1-[4-[2-[4-[4-(3-pyridylmethyl)piperazine-1-carbonyl]anilino]-[1,2,4]triazolo[1,5-a]pyridin-8-yl]-3,6-dihydro-2H-pyridin-1-yl]butan-1-one], the concentration for half-maximal inhibition (IC50) came out at 4 nM.

In the case of `O=C(CCC(F)(F)F)N1CC=C(c2cccn3nc(Nc4ccc(C(=O)N5CCN(c6cccnc6)CC5)cc4)nc23)CC1` [Example 2-395, 4,4,4-trifluoro-1-[4-[2-[4-[4-(3-pyridyl)piperazine-1-carbonyl]anilino]-[1,2,4]triazolo[1,5-a]pyridin-8-yl]-3,6-dihydro-2H-pyridin-1-yl]butan-1-one], the IC50 is 4.6 nM.

In the case of `O=C(CCC(F)(F)F)N1CC=C(c2cccn3nc(Nc4ccc(C(=O)N5CCCC5Cc5ccccn5)cc4)nc23)CC1` (stereo not shown) [Example 2-396, 4,4,4-trifluoro-1-[4-[2-[4-[2-(2-pyridylmethyl)pyrrolidine-1-carbonyl]anilino]-[1,2,4]triazolo[1,5-a]pyridin-8-yl]-3,6-dihydro-2H-pyridin-1-yl]butan-1-one], the IC50 is 5.4 nM.

With `O=C(CCC(F)(F)F)N1CC=C(c2cccn3nc(Nc4ccc(C(=O)N5CCN(c6ccccn6)CC5)cc4)nc23)CC1` [Example 2-397, 4,4,4-trifluoro-1-[4-[2-[4-[4-(2-pyridyl)piperazine-1-carbonyl]anilino]-[1,2,4]triazolo[1,5-a]pyridin-8-yl]-3,6-dihydro-2H-pyridin-1-yl]butan-1-one], the half-maximal inhibitory concentration (IC50) came to 20.2 nM.

As for `O=C(CCC(F)(F)F)N1CC=C(c2cccn3nc(Nc4ccc(C(=O)N5CCN(CC6CC6)CC5)cc4)nc23)CC1` [Example 2-398, 1-[4-[2-[4-[4-(cyclopropylmethyl)piperazine-1-carbonyl]anilino]-[1,2,4]triazolo[1,5-a]pyridin-8-yl]-3,6-dihydro-2H-pyridin-1-yl]-4,4,4-trifluoro-butan-1-one], the IC50 is 8.6 nM.

`CC(CN(C)C)NC(=O)c1ccc(Nc2nc3c(C4=CCN(C(=O)CCC(F)(F)F)CC4)cccn3n2)cc1` (stereo not shown) [Example 2-399, N-[2-(dimethylamino)-1-methyl-ethyl]-4-[[8-[1-(4,4,4-trifluorobutanoyl)-3,6-dihydro-2H-pyridin-4-yl]-[1,2,4]triazolo[1,5-a]pyridin-2-yl]amino]benzamide]: the IC50 was 12.1 nM.

`CCCN1CCC(N(C(=O)c2ccc(Nc3nc4c(C5=CCN(C(=O)CCC(F)(F)F)CC5)cccn4n3)cc2)C2CC2)CC1` [Example 2-400, N-cyclopropyl-N-(1-propyl-4-piperidyl)-4-[[8-[1-(4,4,4-trifluorobutanoyl)-3,6-dihydro-2H-pyridin-4-yl]-[1,2,4]triazolo[1,5-a]pyridin-2-yl]amino]benzamide]: the half-maximal inhibitory concentration (IC50) was determined as 6.8 nM.
